PMC10233829 (ACS Omega, 2023)
In brackets after ≈: the same amount, converted by molar mass.

Legend:
[1] = tested on: S. epidermidis ATCC 12228; test: MIC, twofold microdilution, standard strain; format: cell-based; settings: Staphylococcus epidermidis, ATCC12228, 18 h
[2] = MTT assay, cytotoxic activity; format: cell-based; settings: human, HaCaT cells (immortal keratinocytes); MTT, 72 h, normal cell line; read-out: IC50 HaCaT
Summary of the method: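 MTT assay on cells grown at 37 °C/5% CO2. Viability is expressed as relative MTT reduction: test absorbance divided by untreated-control absorbance, ×100%.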

[3] = tested on: P. aeruginosa ATCC 15442; test: MIC, twofold microdilution, standard strain; format: cell-based, Pseudomonas aeruginosa; settings: for MIC: Pseudomonas aeruginosa, ATCC15442, standard strain, 18 h
[4] = tested on: S. aureus ATCC 25923; test: MIC, twofold microdilution, standard strain; format: cell-based; settings: Staphylococcus aureus, ATCC25923, 18 h
[5] = tested on: S. aureus 180; test: MIC, twofold microdilution, clinical strain; format: cell-based; settings: Staphylococcus aureus, 18 h
[6] = tested on: P. aeruginosa 659; test: MIC, twofold microdilution, clinical strain; format: cell-based; settings: Pseudomonas aeruginosa, 18 h
[7] = tested on: S. aureus T5591; test: MIC, twofold microdilution, clinical strain; format: cell-based, Staphylococcus aureus; settings: Staphylococcus aureus, T5591, 18 h
[8] = tested on: S. aureus ATCC 29213; test: MIC, twofold microdilution, standard strain; format: cell-based; settings: Staphylococcus aureus, ATCC29213, 18 h
[9] = tested on: E. coli 951; test: MIC, twofold microdilution, clinical strain; format: cell-based; settings: Escherichia coli, 18 h
[10] = tested on: S. epidermidis ATCC 35984; test: MIC, twofold microdilution, standard strain; format: cell-based; settings: Staphylococcus epidermidis, ATCC35984, 18 h
[11] = tested on: E. cloacae 8; test: MIC, twofold microdilution, clinical strain; format: cell-based, Escherichia cloacae; settings: Enterobacter cloacae, 8; clinical strain, 18 h
[12] = tested on: M. tuberculosis H37Rv; test: Tuberculostatic activity, Microplate Alamar Blue Assay (MIC); format: cell-based, Mycobacterium tuberculosis; settings: Mycobacterium tuberculosis, H37RV; MABA; read-out: MIC M. tuberculosis H37Rv
[13] = tested on: E. coli 600; test: MIC, twofold microdilution, clinical strain; format: cell-based, Escherichia coli; settings: Escherichia coli, 600, 18 h
[14] = tested on: P. aeruginosa 37; test: MIC, twofold microdilution, clinical strain; format: cell-based; settings: Pseudomonas aeruginosa, 18 h
[15] = tested on: PC3 cells; test: MTT assay, cytotoxic activity; format: cell-based, human; settings: for IC50: Homo sapiens, PC-3, 72 h, MTT, 72 h
Summary of the method: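 PC3 cells were grown at 37 °C/5% CO2 and exposed to test compounds. Viability came from MTT reduction, as test absorbance over untreated-control absorbance × 100%.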

[16] = tested on: S. pasteuri KR 4358; test: MIC, twofold microdilution, clinical strain; format: cell-based; settings: Staphylococcus pasteuri, KR4358, 18 h
[17] = tested on: S. aureus 5595; test: MIC, twofold microdilution, clinical strain; format: cell-based; settings: Staphylococcus aureus, 18 h
[18] = tested on: E. coli 520; test: MIC, twofold microdilution, clinical strain; format: cell-based; settings: Escherichia coli, 18 h
[19] = tested on: S. aureus T5595; test: MIC, twofold microdilution, clinical strain; format: cell-based, Staphylococcus aureus; settings: Staphylococcus aureus, T5595, 18 h
[20] = tested on: S. epidermidis KR4243/1; test: MIC, twofold microdilution, clinical strain; format: cell-based; settings: Staphylococcus epidermidis, 18 h
[21] = tested on: K. pneumoniae 28; test: MIC, twofold microdilution, clinical strain; format: cell-based; settings: Klebsiella pneumoniae, 18 h
[22] = tested on: S. aureus NCTC 4163; test: MIC, twofold microdilution, standard strain; format: cell-based; settings: Staphylococcus aureus, NCTC4163, 18 h
[23] = tested on: K. pneumoniae 510; test: MIC, twofold microdilution, clinical strain; format: cell-based, Klebsiella pneumoniae; settings: for MIC: Klebsiella pneumoniae, 510, clinical strain, 18 h
[24] = tested on: S. epidermidis 5253; test: MIC, twofold microdilution, clinical strain; format: cell-based, Staphylococcus epidermidis; settings: Staphylococcus epidermidis, 5253, 18 h
[25] = tested on: S. aureus ATCC 6538; test: MIC, twofold microdilution, standard strain; format: cell-based, Staphylococcus aureus; settings: for MIC: Staphylococcus aureus, ATCC6538, standard strain, 18 h
[26] = tested on: S. epidermidis 4341; test: MIC, twofold microdilution, clinical strain; format: cell-based; settings: Staphylococcus epidermidis, 18 h
[27] = tested on: E. coli ATCC 25922; test: MIC, twofold microdilution, standard strain; format: cell-based, Escherichia coli; settings: for MIC: Escherichia coli, ATCC25922, standard strain, 18 h
[28] = tested on: M. tuberculosis Spec. 192; test: Tuberculostatic activity, Microplate Alamar Blue Assay (MIC); format: cell-based; settings: Mycobacterium tuberculosis, MABA, read-out: MIC M. tuberculosis Spec. 192 (sensitive to tuberculostatics)
[29] = tested on: clinical bacterial strains; test: MIC, clinical isolates as groups of strains; format: cell-based
[30] = tested on: E. coli ATCC 25922; test: Bacterial growth curve assay (OD600, 18 h); format: cell-based, Escherichia coli; settings: E. coli ATCC 25922, 18 h

Compound	MIC [1] [µg/mL]	IC50 at 72 h [2] [µM]	MIC [3] [µg/mL]	MIC [4] [µg/mL]	MIC [5] [µg/mL]	MIC [6] [µg/mL]	MIC [7] [µg/mL]	MIC [8] [µg/mL]	MIC [9] [µg/mL]	MIC [10] [µg/mL]	MIC [11] [µg/mL]	MIC [12] [µg/mL]	MIC [13] [µg/mL]	MIC [14] [µg/mL]	IC50 [15] [µM]	MIC [16] [µg/mL]	MIC [17] [µg/mL]	MIC [18] [µg/mL]	MIC [19] [µg/mL]	MIC [20] [µg/mL]	further results
O=C(O)c1cn(C2CC2)c2cc(N3CCN(CCCCCCCCCCC(=O)N4CCN(c5cc6c(cc5F)c(=O)c(C(=O)O)cn6C5CC5)CC4)CC3)c(F)cc2c1=O [Compound 21, CP–Undecanoyl–CP Dimer]	25.6 (≈ 30.9 µM)	73.2 ± 10.1	> 25.6	12.8 (≈ 15.4 µM)	> 25.6	> 25.6	> 25.6	12.8 (≈ 15.4 µM)	> 25.6	12.8 (≈ 15.4 µM)	> 25.6	2 (≈ 2.41 µM)	> 25.6	> 25.6	4.8 ± 0.1	> 25.6	> 25.6	> 25.6	> 25.6	> 25.6	fold stronger cytotoxic properties than cisplatin ([15]; PC3): 2.75 fold; MIC [21]: > 25.6 µg/mL; MIC [22]: 12.8 µg/mL (≈ 15.4 µM); MIC [23]: > 25.6 µg/mL; MIC [24]: > 25.6 µg/mL; MIC [25]: 12.8 µg/mL (≈ 15.4 µM); MIC [26]: > 25.6 µg/mL; MIC [27]: 25.6 µg/mL (≈ 30.9 µM); MIC [28]: 2 µg/mL (≈ 2.41 µM)
O=C(O)c1cn(C2CC2)c2cc(N3CCN(C(=O)CCCCBr)CC3)c(F)cc2c1=O [Compound 11, 7-[4-(5-Bromopentanoyl)-piperazin-1-yl]-1-cyclopropyl-6-fluoro-4-oxo-1,4-dihydro-quinoline-3-carboxylic Acid]	0.1 (≈ 0.202 µM)	80.1 ± 8.1	0.1 (≈ 0.202 µM)	0.4 (≈ 0.809 µM)	0.8 (≈ 1.62 µM)	0.8 (≈ 1.62 µM)	0.8 (≈ 1.62 µM)	0.2 (≈ 0.405 µM)	0.4 (≈ 0.809 µM)	0.1 (≈ 0.202 µM)	0.05 (≈ 0.101 µM)	0.5 (≈ 1.01 µM)	0.05 (≈ 0.101 µM)	0.8 (≈ 1.62 µM)	81.7 ± 8.9	0.2 (≈ 0.405 µM)	0.8 (≈ 1.62 µM)	0.1 (≈ 0.202 µM)	0.8 (≈ 1.62 µM)	0.4 (≈ 0.809 µM)	MIC used in biofilm eradication assay, P. aeruginosa 15442 ([3]; Table S1, MIC): 0.100 µg/mL (≈ 0.202 µM); share of CP inhibitory activity ([29]; S. aureus 180 and 5595): 62.5%; MIC [21]: > 25.6 µg/mL; MIC [22]: 0.1 µg/mL (≈ 0.202 µM); share of the reference (CP) activity ([23]; Klebsiella pneumoniae rods): 62.5%; MIC [23]: 6.4 µg/mL (≈ 12.9 µM); MIC [24]: > 25.6 µg/mL; concentration that inhibited bacterial cell growth [30]: ≥ 0.025 µg/mL; MIC [25]: 0.1 µg/mL (≈ 0.202 µM); MIC used in biofilm eradication assay, S. aureus 6538 ([25]; Table S1, MIC): 0.100 µg/mL (≈ 0.202 µM); MIC [26]: 25.6 µg/mL (≈ 51.8 µM); MIC [27]: 0.025 µg/mL (≈ 0.0506 µM); MIC used in biofilm eradication assay, E. coli ATCC 25922 ([27]; Table S1, MIC): 0.025 µg/mL (≈ 0.0506 µM); MIC [28]: 0.5 µg/mL (≈ 1.01 µM)
O=C(O)c1cn(C2CC2)c2cc(N3CCN(C(=O)CCC(F)(F)F)CC3)c(F)cc2c1=O [Compound 15, 7-[4-(4,4,4-Trifluorobutyryl)-piperazin-1-yl]-1-cyclopropyl-6-fluoro-4-oxo-1,4-dihydro-quinoline-3-carboxylic Acid]	0.2 (≈ 0.439 µM)	85.5 ± 9.2	1 (≈ 2.2 µM)	0.2 (≈ 0.439 µM)	0.5 (≈ 1.1 µM)	> 25.6	0.4 (≈ 0.878 µM)	0.2 (≈ 0.439 µM)	> 25.6	0.2 (≈ 0.439 µM)	> 25.6	64 (≈ 141 µM)	3.2 (≈ 7.03 µM)	> 25.6	15.7 ± 3.8	0.2 (≈ 0.439 µM)	0.5 (≈ 1.1 µM)	3.2 (≈ 7.03 µM)	0.4 (≈ 0.878 µM)	0.2 (≈ 0.439 µM)	share of the reference (CP) activity ([29]; S. aureus T5595 and T5591): 62.5%; MIC [21]: > 25.6 µg/mL; MIC [22]: 0.2 µg/mL (≈ 0.439 µM); MIC [23]: > 25.6 µg/mL; MIC [24]: > 25.6 µg/mL; MIC [25]: 0.2 µg/mL (≈ 0.439 µM); MIC [26]: > 25.6 µg/mL; MIC [27]: 1.6 µg/mL (≈ 3.51 µM); MIC [28]: 64 µg/mL (≈ 141 µM)
